Consider 4 compounds from patent publication US9597369B2, “Inhibitors of atypical protein kinase C and their use in treating hedgehog pathway-dependent cancers” (The Board of Trustees of the Leland Stanford Junior …, priority 2011, dated 2017).

For orientation: IC50 means the concentration that gives 50% inhibition. A higher IC50 goes with weaker potency.

Data set [1] deals with ASZ001 cells. The data set is classed as cell-based, mouse. To be noted: 48 h. As for the experimental part: (§1) Primary mouse dermal cells were isolated as previously described (Bershteyn, M., Atwood, S. X., Woo, W.-M., Li, M. & Oro, A. E. MIM and cortactin antagonism regulates ciliogenesis and hedgehog signaling. Dev. Cell 19, 270-283 (2010)). Dermal cells were grown in Amniomax media containing supplement and antibiotics (Invitrogen). ASZ001 cells were grown in 154CF media containing 2% chelated FBS, HKGS supplement, and antibiotics (Invitrogen). Keratinocytes (HPA Culture Collections) were grown in CnT-07 media containing supplement and 0.07 mM CaCl2 (CelINTec). Cells were sterum-starved between 24-48 hrs to induce ciliogenesis. MTT cell proliferation assay was performed using manufacturer's protocol from Invitrogen.
(§2) Subconfluent ASZ001 cells were serum-starved and inhibitors added for 48 hrs prior to MTT assay and 24 hrs prior to visualize cilia and assay Gli target gene induction. Stability assays performed with ASZ001 preincubated with PSI for one hour before 20 ug/ml cyclohexamide addition at various time points.

Data set [2] deals with non-tumorigenic cells. In words: Proliferation of non-tumorigenic cells. The data set is classed as cell-based, mouse and human. The following applies: mouse dermal fibroblasts, mouse keratinocytes, human retinal pigment epithelial cells, FIG. 7. The procedure: as §1
In data set [3] the test system is allografted BCC tumors. The following applies: mouse, in vivo. The text has this:
All mouse studies were approved by and conformed to the policies and regulations of the Institutional Animal Care and Use Committees at Stanford University and the Children's Hospital Oakland Research Institute. Ptch1+/−, K14CreER2, p53flox/flox mice were used to develop BCC tumors. Tumors were allografted as previously described (Wang, G. Y. et al. Establishment of Murine Basal Cell Carcinoma Allografts: A Potential Model for Preclinical Drug Testing and for Molecular Analysis. Journal of Investigative Dermatology (2011).doi:10.1038/jid.2011.204). Nine tumors from three mice were treated topically twice daily with 0.8 mg/kg PSI dissolved in DMSO for at least 32 days. Ten tumors from three mice were treated with DMSO twice daily as a control. Mice were euthanized and tumors harvested depending on tumor size that exceeded our animal care guidelines. We measured the change in tumor size with calipers every three to four days. Pairwise comparisons between DMSO and PSI treatment were done using a two-sided unpaired t test with GraphPad Prism software.

Data set [4] concerns Hh signaling. In words: Hh signaling (gli1 mRNA, Gli target gene induction) in BCC cells. The data set is classed as cell-based, mouse. The procedure:
as §2
(§3) Aligned 36 bp raw reads with Bowtie using the NCBI37/mm9 reference genome. Differential expression analysis was performed on the 3′ exon with the Cufflinks suite using mouse RefSeq gene predictions as a reference transcriptome. Annotated coding transcripts were filtered for significant expression by a RPKM of 25 in at least one sample set. […] Transcripts were validated using Brilliant II SYBR Green qRT-PCR Master Mix Kit (Agilent Technologies) with primers listed in the following table. Two-tail p-value between our gene sets and other gene sets calculated using Fisher's Exact Test.

Data set [5] concerns ASZ001 cells. Kind of data set: 3' end RNA sequencing of inhibitor-treated BCC cells. To be noted: inhibitor 24 hrs, FIG. 3a. The data set is classed as cell-based, mouse. The procedure:
as §3

Peptide text beside a SMILES is read from it. * marks the point of attachment. Myristoyl = CCCCCCCCCCCCCC(=O)*

As for `CCCCCCCCCCCCCC(=O)N[C@@H](CO)C(=O)N[C@H](C(=O)N[C@@H](Cc1ccc(O)cc1)C(=O)N[C@@H](CCCNC(=N)N)C(=O)N[C@@H](CCCNC(=N)N)C(=O)NCC(=O)N[C@@H](C)C(=O)N[C@@H](CCCNC(=N)N)C(=O)N[C@@H](CCCNC(=N)N)C(=O)N[C@@H](Cc1c[nH]c2ccccc12)C(=O)N[C@@H](CCCNC(=N)N)C(=O)N[C@@H](CCCCN)C(=O)N[C@@H](CC(C)C)C(=O)N[C@@H](Cc1ccc(O)cc1)C(=O)O)[C@@H](C)CC` [PSI] (Myristoyl-SIYRRGARRWRKLY-OH), the half-maximal inhibitory concentration (IC50) in data set [1] is 5 µM. For the same compound, the “proliferation in non-tumorigenic cells” value in data set [2] is given as “unaffected”. For the same compound, the “adverse effects on normal skin” value in data set [3] is “no adverse effects to PSI treatment except a mild hair phenotype”.
Consider `CNC1CCC(N(Cc2cccc(-c3ccncc3)c2)C(=O)c2sc3ccccc3c2Cl)CC1` (centres unmarked) [SAG], for which the gli1 transcription result in data set [4] (BCC cells, agonist alone, FIG. 3d) is “activates gli1 transcription”.
For `Cc1nn(-c2ccccc2)c(C)c1/C=N/N1CCN(Cc2ccccc2)CC1` [Sant-1], in data set [4] (mouse BCC cells, FIG. 2i), the cdc42 transcript entry is given as “repressed” and the pard6a transcript result is “elevated”. Further, the “transcripts changed two-fold or greater compared to control” value in data set [5] is 5700 transcripts.
As to `CC1=C2C[C@H]3[C@@H](CC=C4C[C@@H](O)CC[C@@]43C)[C@@H]2CC[C@]12O[C@@H]1C[C@H](C)CN[C@H]1[C@H]2C` [cyclopamine], the “gli1 and apkciota transcript” value in data set [4] (BCC cells, FIG. 2g) is “specifically suppressed”.
